Assay results reported in paper PMC12119672, “Development and evaluation of [^11C]DPA-813 and [^18F]DPA-814: novel TSPO PET tracers insensitive to human single nucleotide polymorphism rs6971” (European Journal of Nuclear Medicine and Molecular Imaging, 2025).
Where “and” joins values, the source holds several entries; their conditions need not be identical. Identical values can stand only once. Marks after values point to notes of the source that are not given here.

Tests used:
[1] = biological target: T1, WT human TSPO (Homo sapiens, UniProt P30536); test: Competition radioligand binding vs [3H]PK 11195, membranes of transfected HEK-293T cells (WT TSPO); conditions: vs [3H]PK 11195 (10 nM), HEK-293T membranes, mean ± SEM; read-out: Ki WT hTSPO
T1 construct: expressed in transfected cells
T1 sequence (P30536 whole entry T147A): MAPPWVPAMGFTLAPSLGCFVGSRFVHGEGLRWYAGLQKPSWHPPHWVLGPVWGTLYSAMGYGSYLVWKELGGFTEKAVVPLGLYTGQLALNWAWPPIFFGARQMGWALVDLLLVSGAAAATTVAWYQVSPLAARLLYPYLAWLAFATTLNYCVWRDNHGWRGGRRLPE
Description: (§1) Binding affinities (Ki) to wild-type (WT) and A147T human TSPO were assessed using a previously published method. HEK-293T cells were stably transfected with WT and A147T TSPO. Membranes were isolated from each cell line using an Ultra-Turrax hand-held homogeniser. These cells have been previously validated as an in vitro model for low- and high-affinity TSPO binding. […] Non-specific binding was determined using a saturating concentration (1 µM) of non-tritiated PK 11195. This non-specific binding contributed less than 10% of total binding. Reactions were halted by filtering through a 96-well glass-fibre filter plate (Millipore), followed by eight washes with ice-cold 50 mM Tris HCl. Microscint 0 was added to the plate and resultant radioactivity-related photons were collected by a Microbeta 2450 (PerkinElmer). Ki values were fit to a competition binding curve fit on non-specific binding-corrected data using GraphPad Prism 10.0 (GraphPad). Results are presented as mean ± standard error of the mean (SEM) from at least three independent experiments. Binding affinities (Ki) to rat TSPO were measured in duplicate by Eurofins Panlabs Discovery Services (assay #226700) (Supplementary Fig. 12). Single-dose (10 µM) off-target in vitro screening was performed in duplicate by Eurofins Panlabs Discovery Services (Supplementary Table 5).
(§2) In vitro binding affinities (Ki) for human TSPO were initially assessed using a competition radioligand assay against [^3H]PK 11195 in our well-characterised assay using membranes isolated from transfected HEK-293T cells overexpressing either WT or A147T TSPO [32]. This structure-activity relationship study will be reported in a separate publication. […] Data for DPA-713 and DPA-714 are included for comparison.

[2] = biological target: T2, A147T human TSPO (Homo sapiens, UniProt P30536); test: Competition radioligand binding vs [3H]PK 11195, membranes of transfected HEK-293T cells (A147T TSPO); conditions: vs [3H]PK 11195 (10 nM), HEK-293T membranes, mean ± SEM; read-out: Ki A147T hTSPO
T2 construct: expressed in transfected cells
T2 sequence (P30536 whole entry, stated change not applied): as the sequence (P30536 whole entry T147A) above, with A147T counted along it
Description: as §1, §2

[3] = distribution coefficient; cited from earlier work
[4] = biological target: T3, rat TSPO (Rattus norvegicus, UniProt P16257); test: Competitive binding to rat TSPO vs [3H]PK 11195 (Eurofins assay #226700, rat heart membranes); conditions: vs DPA-713 / DPA-714
T3 construct: Heart of male Wistar derived rats weighing 175 ± 25 g are used to prepare peripheral benzodiazepine membrane receptors [TSPO]; tissue Eurofins Panlabs Discovery Services assay #226700; host or cells: rat heart (male Wistar derived)
Description: as §1
Supplementary Figure 12 Dose-response curves and binding affinities of DPA-813 and DPA-814 showing competitive binding to rat TSPO vs [^3H]PK 11195. Method from Eurofins: Heart of male Wistar derived rats weighing 175 ± 25 g are used to prepare peripheral benzodiazepine membrane receptors [TSPO] in modified Tris-HCl buffer pH 7.5. A 0.25 mg aliquot is incubated with 0.3 nM [^3H]PK 11195 for 15 minutes at 25 °C. Non-specific binding is estimated in the presence of 100 μM Dipyridamole. Membranes are filtered and washed, the filters are then counted to determine [^3H]PK 11195 specifically bound.

[5] = Ex vivo biodistribution in wild-type rats; parameters: species or system rat; conditions: i.v.
Description: Wistar/RccHan (WIST) rats from Inotiv, the Netherlands, received intravenous injections via a tail vein catheter of either [^11C]DPA-813 (30–50 MBq) or [^18F]DPA-814 (20–30 MBq). The rats were euthanized at 5, 15, and 45 min post-injection (n = 4 per time point). Blood, heart, lungs, liver, spleen, kidney, urine, bone, brain, duodenum, small intestine, skin, and muscle were collected, weighed, and their radioactivity measured using a Wizard Gamma counter 1470 or 2480 (Wallac/PerkinElmer, Waltham, MA, USA). Entire organs were collected, except for larger organs like the liver and lungs, where only a portion was dissected. The radioactivity uptake in each organ was expressed as the percentage of the injected dose per gram of tissue (%ID/g).

[6] = Ex vivo metabolite analysis (plasma and brain) in wild-type rats; parameters: species or system rat; conditions: i.v.
Description: Metabolite analysis was conducted following the method outlined in a previous study. Wistar/RccHan (WIST) rats (Inotiv, the Netherlands) received intravenous injections of either [^11C]DPA-813 (30–50 MBq) or [^18F]DPA-814 (20–30 MBq). Rats were euthanized at 5, 15, and 45 min post-injection (n = 4 per time point). Plasma was separated from blood then processed through a C18 Sep-Pak (Waters, Milford, MA, USA). After washing with 3 mL of water to isolate the polar fraction, the non-polar fraction was eluted using 2 mL of methanol and 1 mL of water and subsequently analyzed by HPLC. The brain tissue was collected and homogenized in a mixture of MeCN and H2O (50/50, 4 mL) before centrifugation (5 min, 4000 rpm, 20 °C, Hettich Universal 32). The obtained supernatant was separated from the precipitate and analyzed via HPLC. Analytical HPLC was performed using a Dionex UltiMate 3000 HPLC system equipped with Chromeleon software (version 6.8), utilizing a Gemini C18 5-µm (10 × 250 mm) column (Phenomenex, Torrance, CA, USA). All fractions were assessed for radioactivity using a Wizard Gamma counter 1470 or 2480 (Wallac/PerkinElmer, Waltham, MA, USA).

[7] = tested on: TSPO in human MS tissues; test: Autoradiography on genotyped human MS brain tissue (HAB, MAB, LAB); assay type: binding
Source text: Brain tissues from MS patients (n = 7) were used in this study and were obtained from the MS centre of the Amsterdam University Medical Centers (AUMC). For some patient material, several brain tissues were available. The MS centre received permission from the Ethical Committee of the AUMC (Amsterdam, The Netherlands) to perform autopsies for tissue use and access to medical records for research purposes. All patients and controls, or their next of kin, had given informed consent for autopsy and use of brain tissue for research purposes.
TSPO rs6971 SNP was determined with a Taqman assay (C_2512465_20, ThermoFisher Scientific, The Netherlands). DNA was isolated from human MS brain tissue cryosections using a QIAmp mini kit from Qiagen according to the manufacturer’s recommendation. The concentration of the isolated DNA was determined on a nanodrop (NanoVue Plus, Biochrom). DNA concentration ranged from 45 to 246 µg/mL. QPCR was performed on a QuantStudio (Applied Biosystems, The Netherlands). Synthetic DNA (300 bp) for the two TSPO SNP alleles, rs6971-A, and rs6971-G, was used as a control for the Taqman assay. DNA samples were diluted 1/100 in milliQ water, and 4.5 µL was used for the QPCR. Control DNA sequences were reconstituted in 10 ng/mL in milliQ water. The final QPCR solution contained 5 µL TaqPath proAmp master mix (ThermoFisher Scientific, The Netherlands), 0.5 µL Taqman SNP, and 4.5 µL DNA. Results of the Taqman assay are summarised in Supplementary Tables 4 and Supplementary Fig. 2.
Human MS tissue cryosections (20 μm) were mounted on glass slides, air-dried, and stored at − 80 °C until needed. Prior to use, the sections were washed three times in PBS for 5 min each, then dried under an airflow. […] For blocking experiments, tissue sections were co-incubated with PK 11195 (10 µM) and the tracer. After incubation, sections were washed for 90 s three times each in ice-cold PBS and then dipped in deionized water twice. The sections were air-dried and exposed to a phosphor screen BAS-IP SR 2025 (General Electric, Eindhoven, The Netherlands). Phosphor screens were subsequently imaged using a Typhoon FLA 7000 imager (General Electric, Eindhoven, The Netherlands), and signal intensity was quantified using ImageLab software (BioRad, Lunteren, The Netherlands).

[8] = tested on: EAE rat model (spinal cord); test: PET imaging in the EAE rat model; assay type: in vivo

Compound: CCN(CC)C(=O)Cc1c(-c2ccc(OCCF)cc2)nn2c(C)cc(C)nc12 [DPA-714, reference compound]
- Ki [1]: 20.9 ± 5 nM
- Ki [2]: 260 ± 93.6 nM
- logD7.4 [3]: 2.4 ^b

Compound: CCN(CC)C(=O)Cc1c(-c2ccc(OC)cc2)nn2c(C)cc(C)nc12 [DPA-713]
- logD7.4 [3]: 2.4 ^b

Compound: Cc1cc(C)n2nc(-c3ccc(O[11CH3])cc3)c(CC(=O)N(C)c3ccccc3)c2n1 [[^11C]DPA-813]
- higher affinity to rat TSPO compared to the parent compound [4]: 24 fold
- Biodistribution, Blood ([5]; 5 min post-injection): 0.31 ± 0.1 %ID/g
- Biodistribution, Bone ([5]; 5 min post-injection): 0.28±0.1 %ID/g
- Biodistribution, Brain ([5]; 5 min post-injection): 0.41 ± 0.1 %ID/g
- Biodistribution, Duodenum ([5]; 5 min post-injection): 1.44±0.2 %ID/g
- Biodistribution, Heart ([5]; 5 min post-injection): 3.70±0.5 %ID/g
- Biodistribution, Kidney ([5]; 5 min post-injection): 3.80±0.5 %ID/g
- Biodistribution, Liver ([5]; 5 min post-injection): 1.42±0.4 %ID/g
- Biodistribution, Lungs ([5]; 5 min post-injection): 29.84±3. %ID/g
- Biodistribution, Skin ([5]; 5 min post-injection): 0.09±0.1 %ID/g
- Biodistribution, Small intestine ([5]; 5 min post-injection): 1.04±0.4 %ID/g
- Biodistribution, Tail ([5]; 5 min post-injection): 1.30±0.6 %ID/g
- Biodistribution, Urine ([5]; 5 min post-injection): 0.03±0.0 %ID/g
- Biodistribution, muscle ([5]; 5 min post-injection): 0.07±0.0 %ID/g
- Biodistribution, spleen ([5]; 5 min post-injection): 4.62±0.6 %ID/g
- Biodistribution, Blood ([5]; 15 min post-injection): 0.34±0.1 %ID/g
- Biodistribution, Bone ([5]; 15 min post-injection): 0.35±0.1 %ID/g
- Biodistribution, Brain ([5]; 15 min post-injection): 0.39±0.0 %ID/g
- Biodistribution, Duodenum ([5]; 15 min post-injection): 1.37±0.1 %ID/g
- Biodistribution, Heart ([5]; 15 min post-injection): 4.57±0.2 %ID/g
- Biodistribution, Kidney ([5]; 15 min post-injection): 4.31±0.5 %ID/g
- Biodistribution, Liver ([5]; 15 min post-injection): 1.69 ± 0.2 %ID/g
- Biodistribution, Lungs ([5]; 15 min post-injection): 24.03±7. %ID/g
- Biodistribution, Skin ([5]; 15 min post-injection): 0.10±0.0 %ID/g
- Biodistribution, Small intestine ([5]; 15 min post-injection): 0.77±0.3 %ID/g
- Biodistribution, Tail ([5]; 15 min post-injection): 1.18±0.1 %ID/g
- Biodistribution, Urine ([5]; 15 min post-injection): 0.02±0.0 %ID/g
- Biodistribution, muscle ([5]; 15 min post-injection): 0.10±0.0 %ID/g
- Biodistribution, spleen ([5]; 15 min post-injection): 5.88±1.8 %ID/g
- Biodistribution, Blood ([5]; 45 min post-injection): 0.27 ± 0.01 %ID/g
- Biodistribution, Bone ([5]; 45 min post-injection): 0.26±0.1 %ID/g
- Biodistribution, Brain ([5]; 45 min post-injection): 0.34 ± 0.1 %ID/g
- Biodistribution, Duodenum ([5]; 45 min post-injection): 1.51±0.1 %ID/g
- Biodistribution, Heart ([5]; 45 min post-injection): 4.28±0.3 %ID/g
- Biodistribution, Kidney ([5]; 45 min post-injection): 4.20±0.6 %ID/g
- Biodistribution, Liver ([5]; 45 min post-injection): 1.68±0.3 %ID/g
- Biodistribution, Lungs ([5]; 45 min post-injection): 16.13±3.5 %ID/g
- Biodistribution, Skin ([5]; 45 min post-injection): 0.12±0.04 %ID/g
- Biodistribution, Small intestine ([5]; 45 min post-injection): 1.18±0.2 %ID/g
- Biodistribution, Tail ([5]; 45 min post-injection): 1.33±0.7 %ID/g
- Biodistribution, Urine ([5]; 45 min post-injection): 0.23±0.3 %ID/g
- Biodistribution, muscle ([5]; 45 min post-injection): 0.12±0.03 %ID/g
- Biodistribution, spleen ([5]; 45 min post-injection): 6.66±1.2 %ID/g
- Brain, Parent (intact tracer) ([6]; 5 min post-injection): 99.7 ± 0.1%
- Plasma, Parent (Intact tracer) ([6]; 5 min post-injection): 87.9 ± 2.4%
- Brain, Parent (intact tracer) ([6]; 15 min post-injection): 99.6 ± 0.3%
- Plasma, Parent (Intact tracer) ([6]; 15 min post-injection): 85.5 ± 3.2%
- Brain, Parent (intact tracer) ([6]; 45 min post-injection): 98.9 ± 0.9%
- Plasma, Parent (Intact tracer) ([6]; 45 min post-injection): 67.2 ± 2.9% and 67%
- ratio of the binding quantification [11C]DPA-813/[11C]DPA-713 ([7]; HAB human MS tissue): 1 ± 0.2
- ratio of the binding quantification [11C]DPA-813/[11C]DPA-713 ([7]; LAB human MS tissue): 3
- ratio of the binding quantification [11C]DPA-813/[11C]DPA-713 ([7]; MAB human MS tissue): 1.6 ± 0.1
- higher difference EAE vs control compared with the fluorinated compound ([8]; [11C]DPA-813 vs [18F]DPA-814, [11C]DPA-713 vs [18F]DPA-714): 3 folds
- higher uptake (AUC of time activity curve) in the spinal cord of EAE rats compared to CFA control ([8]; dynamic PET 60 min, peak of clinical symptoms): 64%
